Tests used:
Carbonic anhydrase 1 = Carbonic anhydrase 1 (Homo sapiens, UniProt P00915)
Description: Inhibitory constant against human Carbonic anhydrase I

[1] = target: Carbonic anhydrases; II & IX (Homo sapiens, UniProt P00918+Q16790)
Description: Ratio against Carbonic anhydrase II to Carbonic anhydrase IX

Carbonic anhydrase 9 = Carbonic anhydrase 9 (Homo sapiens, UniProt Q16790)
Description: Inhibitory constant against human Carbonic anhydrase IX

Carbonic anhydrase 2 = Carbonic anhydrase 2 (Homo sapiens, UniProt P00918)
Description: Inhibitory constant against human Carbonic anhydrase II

Sequence of Carbonic anhydrase 1 (P00915 whole entry): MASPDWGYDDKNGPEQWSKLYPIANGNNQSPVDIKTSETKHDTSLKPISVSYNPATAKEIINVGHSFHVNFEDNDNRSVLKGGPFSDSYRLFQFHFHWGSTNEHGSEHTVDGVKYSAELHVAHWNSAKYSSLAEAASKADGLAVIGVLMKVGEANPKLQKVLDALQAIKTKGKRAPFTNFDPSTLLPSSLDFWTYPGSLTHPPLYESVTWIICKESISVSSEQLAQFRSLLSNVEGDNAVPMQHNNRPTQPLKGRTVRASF

| Ki (Carbonic anhydrase 1) [µM] | Ki [1] [Ratio] | Ki (Carbonic anhydrase 9) [µM] | Ki (Carbonic anhydrase 2) [µM] | Compound |
| --- | --- | --- | --- | --- |
| 0.21 | 2.22 | 0.0054 | 0.012 | CN(C)CC/N=C(\S)Nc1ccc(S(=O)(=O)NCc2ccc(S(N)(=O)=O)cc2)cc1 |
| 0.233 |  |  | 0.29 | NS(=O)(=O)c1ccc(NS(=O)(=O)c2ccc(N/C(S)=N/N3CCOCC3)cc2)cc1 |
| 0.246 | 2.06 | 0.005 | 0.0103 | CN1CCN(CC/N=C(\S)Nc2ccc(S(=O)(=O)NCc3ccc(S(N)(=O)=O)cc3)cc2)CC1 |
| 0.175 | 1.5 | 0.0048 | 0.0072 | CN1CCN(CC/N=C(\S)Nc2ccc(S(=O)(=O)Nc3ccc(S(N)(=O)=O)cc3)cc2)CC1 |
| 0.0031 | 45.83 | 0.0048 | 0.22 | NS(=O)(=O)c1ccc(CNS(=O)(=O)c2ccc(N/C(S)=N/CCN3CCOCC3)cc2)cc1 |
| 0.268 |  |  | 0.278 | NS(=O)(=O)c1ccc(CNS(=O)(=O)c2ccc(NC(=S)NN3CCOCC3)cc2)cc1 |
| 0.0037 | 10 | 0.0046 | 0.046 | NS(=O)(=O)c1ccc(CC/N=C(\S)Nc2ccc(S(=O)(=O)NCc3ccc(S(N)(=O)=O)cc3)cc2)cc1 |
| 0.308 | 1.65 | 0.0061 | 0.0101 | CN(C)CC/N=C(\S)Nc1ccc(S(=O)(=O)NCCc2ccc(S(N)(=O)=O)cc2)cc1 |
| 0.355 |  |  | 0.29 | NS(=O)(=O)c1ccc(CNS(=O)(=O)c2ccc(NC(=S)NCc3ccccn3)cc2)cc1 |
| 0.0095 | 32.14 | 0.0056 | 0.18 | NS(=O)(=O)c1ccc(NS(=O)(=O)c2ccc(N/C(S)=N/CCN3CCOCC3)cc2)cc1 |
| 0.105 | 1.2 | 0.0067 | 0.0081 | CN(C)CC/N=C(\S)Nc1ccc(S(=O)(=O)Nc2ccc(S(N)(=O)=O)cc2)cc1 |
| 0.0086 |  |  | 0.64 | NS(=O)(=O)c1ccc(CNS(=O)(=O)c2ccc(NC(=S)NCCc3ccccc3)cc2)cc1 |

— ChEMBL document CHEMBL1144388, “Carbonic anhydrase inhibitors: synthesis and inhibition of cytosolic/tumor-associated carbonic anhydrase isozymes I, II, and IX with sulfonamides incorporating thioureido-sulfanilyl scaffolds” (Bioorg Med Chem Lett, 2005)
